Where a name gives a salt, the structure may show the parent alone. Marks after values point to notes of the source that are not given here.
What was measured:
CO2-induced amnesia = experiment: CO2-induced amnesia, one trial step-through passive avoidance response; assay type: in vivo, mice; settings: 5 mg/kg i.p. immediately after CO2, test 24 hours after training, up to 600 seconds, mean ± standard error, p<0.01 vs. CO2-vehicle control
Text: (§1) Male ddY-mice, weighing 19-25 g were used. The test apparatus consisted of a two-compartment avoidance box with a large 10x23x20 cm compartment illuminated by a 40W bulb, and a. small 14x14x20 cm shock compartment, painted black, with a floor made of metal rods 6 mm apart through which a foot shock (FS, 0.25 mA, 2 seconds) could be delivered. The two compartments were separated by a guillotine door.
(§2) The training procedure consisted of placing the mouse in the center of the large compartment. Within 20 to 50 seconds the animal entered the small compartment and was immediately given FS, and removed from the compartment. The animals were exposed to C02 for 8 seconds or given an electroconvulsive shock (ECS, 30 mA, 0.5 seconds) immediately after FS, or were injected with an amnestic agent scopolamine (SCO, 3 mg/kg i.p.) 20 minutes before FS.
(§3) The testing procedure consisted of placing the animal in the large compartment as above and noting the latency to enter the dark compartment up to 600 seconds. The training-to-test interval was 24 hours. Compound A or vehicle (0.5 % methylcellulose) was injected intraperitoneally immediately after exposure to C02 or ECS. For the scopolamine induced amnesia model, they were injected intraperitoneally immediately after FS. Thirty mice were used per test group.

ECS = experiment: Electroconvulsive shock (ECS) induced amnesia, one trial step-through passive avoidance response; assay type: in vivo, mice; settings: ECS-induced amnesia (30 mA, 0.5 seconds); 5 mg/kg i.p. immediately after ECS; test 24 hours after training; mean ± standard error; p<0.05 vs. ECS-vehicle control
Text: as §1, §2, §3

[1] = tested on: scopolamine induced amnesia; experiment: Scopolamine induced amnesia, one trial step-through passive avoidance response; assay type: in vivo, mice; settings: scopolamine (3 mg/kg i.p.) induced amnesia; 5 mg/kg i.p. immediately after foot shock; test 24 hours after training; mean ± standard error; p<0.05 vs. SCO-vehicle control
Text: as §1, §2, §3

normabaric hypoxia = experiment: Normobaric hypoxia, time to respiratory failure; assay type: in vivo, mice; settings: 30 mg/kg i.p., nitrogen and oxygen (96:4), mean ± standard error, p<0.01 vs. control
Protocol: The experiment was performed according to the method by Yasuda et al described in Arch. Int. Pharmacolodyn., vol. 233, p. 136-144 (1978).
Three male ddY-mice were introduced into a 300 ml glass container in which circulated a current of a gas mixture of nitrogen and oxygen (96:4) at the rate of about 51/minutes. The time to respiratory failure was recorded.

KCN-induced coma = experiment: KCN-induced coma, recovery of righting reflex; assay type: in vivo, mice; settings: values are log t, 10 mg/kg i.p. 30 minutes prior to KCN 1.8 mg/kg i.v., p<0.01 vs. control
Protocol: Male dd-mice were intraperitoneally injected with Compound A 30 minutes prior to the intravenous injection of 1.8 mg/kg of KCN-saline solution. The time to recovery of righting reflex, coma time, was determined.

KCN-induced mortality = experiment: KCN-induced mortality; assay type: in vivo, mice; settings: 30 mg/kg i.p. 30 minutes before KCN 2.5 mg/kg i.v.
[2] = tested on: cerebral energy state in KCN-induced anoxia mice; experiment: Cerebral energy state in KCN-induced anoxia mice; assay type: in vivo; settings: brain, p<0.01 vs. control; for ADP / AMP / ATP / Glucose / Lactate / P-creatine: Compound A i.p.; for ECP (Energy charge potential): ECP = ATP + 0.5xADP / ATP + ADP + AMP
Protocol: Male ddY-mice weighing 22-26 g were used. Compound A was dissolved in 0.5 % methylcellulose solution and injected intraperitoneally. After administration, 2.5 mg/kg of KCN in saline was injected intravenously. The animals were frozen in liquid nitrogen at 30 or 120 seconds laterm After removing and weighing, the frozen cerebrums were powdered.
According to the procedure by Lowry, O. H. et al described in "A flexible system of enzymatic analysis" (Academic press 1978) or by Yasuda et al described in Arch. Int. Pharmacodyn., vol. 242, p. 77-85 (1979), contents of Phosphocreatine (P-creatine), ATP, ADP, AMP, glucose and lactate in brain were determined. Concentrations (µ moles/g of brain) were calculated. Student's t-test was used in the statical analysis of the results.

[3] = tested on: 2-deoxy-D-glucose uptake into rat brain; experiment: Chronic administration, 2-deoxy-D-glucose uptake into rat brain; assay type: in vivo; settings: 10 mg/kg i.p. once daily for 14 days; for dpm/mg tissue dpm/µl serum: 3H-2-deoxy-D-glucose 27 hours after last administration, mean ± standard error, p<0.05 vs. control; for dpm/mg tissue dpm/µl serum (Δ%): change vs. control
Protocol: 2-deoxy-D-glucose uptake into rat brain Compound A was administered intraperitoneally to male Wistar-rat once daily for 14 days. ^3H-2-deoxy-D-glucose (40 µCi/kg, i.p.) was injected to rats 27 hours after the last administration of Compound A. Fifteen minuts after the injection of 3H-2-deoxy-D-glucose, the animals were decapitated and blood from trunk was collected simultaneously. The brains were dissected into five regions. Radioactivity in the brain sample and serum was counted using Soluene-350 and toluene scintillator. […] Each value represents the mean ± standard error.

Acute toxicity in rats = settings: rat, in vivo, po, one week-observation
Protocol: (§4) Compound A was orally administered to male Wistar-rats weighing about 200 g and male ddY-mice weighing 20-25 g. After one week-observation, the LD50 value (mg/kg) was measured.

Acute toxicity in mice = settings: mouse, in vivo, po, one week-observation
Protocol: as §4

[4] = 30 sec. after KCN 2.5mg/kg i.v.
[5] = 120 sec. after KCN 2.5mg/kg i.v.

## c1csc(Cc2ccccc2OCC2CNCCO2)c1 (stereo not drawn) [Compound A, 2-(2-(2-thienylmethyl)phenoxymetyl)morpholine maleate]
CO2-induced amnesia
  Latency: 324.5 ± 37.1 s
ECS
  Latency: 357.5 ± 46.5 s
[1]
  Latency: 169.6 ± 26.7 s
Normabaric hypoxia
  Survival time: 3.87 ± 0.32 min
KCN-induced coma
  Coma time (sec.) (log t ± S.E.): 1.95 ± 0.039 sec.
KCN-induced mortality
  Lethality: 0
KCN-induced mortality; p<0.01 vs. control
  Survival animals/ animals used: 10/10**
[2]; [4]
  ADP: 0.599 ± 0.020 µmol/g of wet tissue
  AMP: 0.107 ± 0.009 µmol/g of wet tissue
  ATP: 2.62 ± 0.07 µmol/g of wet tissue
  Glucose: 1.25 ± 0.11 µmol/g of wet tissue
  Lactate: 4.92 ± 0.17 µmol/g of wet tissue
  P-creatine: 2.52 ± 0.13 µmol/g of wet tissue
  ECP (Energy charge potential): 0.880 ± 0.004
[2]; [5]
  ADP: 0.509 ± 0.023 µmol/g of wet tissue
  AMP: 0.044 ± 0.005 µmol/g of wet tissue
  ATP: 2.60 ± 0.02 µmol/g of wet tissue
  Glucose: 0.64 ± 0.04 µmol/g of wet tissue
  Lactate: 7.42 ± 0.42 µmol/g of wet tissue
  P-creatine: 2.40 ± 0.09 µmol/g of wet tissue
  ECP (Energy charge potential): 0.905 ± 0.004
[3]; Hippocampus
  dpm/mg tissue dpm/µl serum: 0.90 ± 0.07
  dpm/mg tissue dpm/µl serum (Δ%): +20%
[3]; Parietal cortex
  dpm/mg tissue dpm/µl serum: 1.27 ± 0.11
  dpm/mg tissue dpm/µl serum (Δ%): +21%
Acute toxicity in rats
  LD50 at 168 h: 1710 mg/kg
Acute toxicity in mice
  LD50 at 168 h: 716 mg/kg
